Data set [1] can be described thus: Optical properties of SCOTfluors (absorbance, emission, extinction coefficient, quantum yield, solvatochromism). Format: physicochemical. The procedure:
All compounds were dissolved in different organic solvents, including toluene, chloroform, tetrahydrofuran, ethanol, DMSO and water (final concentrations: 10-50 μM). Fluorescence spectra were acquired on a spectrophotometer upon excitation at their maxima absorbance wavelengths.
The optical properties of SCOTfluor-80, 79, 78, 76 and 81 were compared with the properties of the original NBD.

The test system of data set [2] is A549 cells. Put plainly: Time-lapse confocal microscopy co-localization with ER and lysosome markers. To be noted: 50 μM. Format: cell-based, human. As to the method: C) Time-lapse confocal microscopy images of A549 cells treated with SCOTfluor-101 (50 μM, red), LysoTracker Blue (magenta) and ER Tracker Green (green) after 15 min (co-localization: white arrows) and 3 h (co-localization: yellow arrows). Total co-localization coefficients (R) were determined using ImageJ. Scale bar: 15 μm.
(§1) A549 and HeLa cells were obtained from LGC Standards and cultured in Dulbecco's modified Eagle's medium (DMEM) supplemented with 10% FBS, 100 U mL^−1 penicillin and 0.1 mg mL^−1 streptomycin. For transfection experiments, HeLa cells were transfected with pcDNA-PYP-GLUT4-HA-EGFP. Amplification of plasmid-DNA was performed by transformation of competent E. coli DH5a, followed by isolation of pcDNA-PYP-GLUT4-HA-EGFP using GeneJet Plasmid Miniprep kit (ThermoFisher) according to the manufacturer's instructions. Prior to transfection, pcDNA concentration was determined using NanoDrop. Transfection of HeLa cells was performed according to manufacturer's protocol with 1 μg pcDNA-PYP-GLUT4-HA-EGFP using Lipofectamine 3000. Non-transfected as well as transfected cells were maintained at 37° C. and 5% CO2 throughout the imaging experiments.
Confocal fluorescence microscopy was performed on a confocal Leica SP5 or a spinning disk microscope with excitation at 488 nm (ER Tracker, LysoTracker, EGFP & SCOTfluor-89), 561 nm (SCOTfluor-101) and 405 nm (Hoechst 33342). Prior to time-lapse imaging and imaging of HeLa cells, cells were incubated in Krebs-Ringer bicarbonate buffer (KRB) (129 mM NaCl, 4.7 mM KCl, 1.2 mM KH2PO4, 5 mM NaHCO3, 10 mM HEPES; 2.5 mM CaCl2, 1.2 mM MgCl2 and 0.2% BSA, pH 7.4) at 37° C. for 3 h. When appropriate, HeLa cells were washed and imaged in KRB with 1 μM Hoechst 33342 at 37° C., 5% CO2.
Then, the properties of SCOTfluors for imaging the trafficking of essential metabolites under physiological conditions. […] This property was exploited to visualize the recycling of ceramide SCOTfluor-101 in real time in human A549 cells using fluorescence confocal microscopy. […]

Data set [3] can be described thus: Emission of SCOTfluor-101 in PBS/water and in liposomes. Format: physicochemical.
For data set [4], the system named is HeLa cells. Description: Cytotoxicity assay in HeLa cells. Particulars: 100 μM and 75 μM (1% DMSO), 4 h at 37° C.
Description: Cell viabilities were normalized to incubation in cell culture media under the same experimental conditions. A solution of 40% DMSO in cell culture media was used as a known cytotoxic positive control. Values represented as means±s.e.m. (n=3).
For data set [5], the system named is GLUT2. Put plainly: Zebrafish in vivo imaging of glucose uptake. To be noted: 28 hpf, 50 pmol into yolk sac. As to the method: (§2) A-F) Green (GLUT4-EGFP), red (SCOTfluor-89, 100 μM) and merged (Hoechst 33342) images of HeLa cells without additional glucose (A-C) and in media containing 5 mM D-glucose ([…]). White arrows identify co-localization of GLUT4-EGFP and SCOTfluor-89. Scale bar: 10 μm. G) Fluorescence emission spectra of BFP (blue), GFP (green) and SCOTfluor-89 (red). H) Insulin-dependent (100 nM, 1 h) uptake of SCOTfluor-89 (red, 100 μM) in GLUT4-EGFP HeLa cells. I) Chemical structures of compounds SCOTfluor-54 and SCOTfluor-89. J) In vivo images of the head in zebrafish embryos (28 hpf) after injection of SCOTfluor-54 or SCOTfluor-89 (both 50 pmol) to the yolk sac (blue arrowheads). Fluorescence images were taken of wildtype zebrafish or zebrafish that had been injected at one cell stage with 4.2 ng anti-sense glut2 morpholino. Yellow arrows point at midbrain and hindbrain regions within the zebrafish embryo heads. Scale bar: 100 μm.
Anti-sense glut2 morpholino (5′-ATGACCTGCAGAC AACAAGGACACC-3′)^1 was reconstituted to 1 mM in nuclease-free H2O and injected at 4.2 ng/embryo into the one-cell stage. Embryos were maintained at 28.5° C., according to standard protocols. Wild-type controls and glut2 morphants were injected into the yolk sac at 28 hours post fertilization (hpf) with compound SCOTfluor-89 (50 pmol) and 1 mg mL^−1 10,000 MW Dextran Cascade Blue® (ThermoFisher), then embedded in 1% low-melting point agarose for live imaging. Live imaging was performed 30 min post-injection on an inverted Leica SP8 confocal microscope using a HC PL APO CS2 10×/0.40 dry lens. Dextran was excited at 405 nm laser and detected at 415-480 nm, while compound SCOTfluor-89 was excited at 488 nm and detected at 498-600 nm.
It was also examined whether SCOTfluors could be used to image in vivo tissues with high metabolic activity. Fluorescent deoxyglucose tracers can monitor glucose uptake in metabo-lically-active cells and tissues, although few have been reported for in vivo use. Herein synthesized compound SCOTfluor-89 was synthetized as an in vivo-compatible glucose analog by nucleophilic substitution of nitrobenzoselenadiazole with 2-deoxyglucosamine. […] The transport of SCOTfluor-89 in HeLa cells transfected with EGFP-tagged GLUT4, the main glucose transporter in mammalian cells was examined. […] Finally, compound SCOTfluor-89 was tested in vivo in zebrafish embryos to visualize regions of high glucose uptake. […] We confirmed that the staining was dependent on the active transport of SCOTfluor-89 through GLUT2 by examining glut2 morpholino-injected zebrafish, which have reduced levels of GLUT2.

The target in data set [6] is T1, GLUT4 (Homo sapiens, UniProt P14672).
T1 construct: PYP (photoactive yellow protein tag); HA; expressed in transfected cells; host or cells: HeLa
T1 sequence (P14672 1-509): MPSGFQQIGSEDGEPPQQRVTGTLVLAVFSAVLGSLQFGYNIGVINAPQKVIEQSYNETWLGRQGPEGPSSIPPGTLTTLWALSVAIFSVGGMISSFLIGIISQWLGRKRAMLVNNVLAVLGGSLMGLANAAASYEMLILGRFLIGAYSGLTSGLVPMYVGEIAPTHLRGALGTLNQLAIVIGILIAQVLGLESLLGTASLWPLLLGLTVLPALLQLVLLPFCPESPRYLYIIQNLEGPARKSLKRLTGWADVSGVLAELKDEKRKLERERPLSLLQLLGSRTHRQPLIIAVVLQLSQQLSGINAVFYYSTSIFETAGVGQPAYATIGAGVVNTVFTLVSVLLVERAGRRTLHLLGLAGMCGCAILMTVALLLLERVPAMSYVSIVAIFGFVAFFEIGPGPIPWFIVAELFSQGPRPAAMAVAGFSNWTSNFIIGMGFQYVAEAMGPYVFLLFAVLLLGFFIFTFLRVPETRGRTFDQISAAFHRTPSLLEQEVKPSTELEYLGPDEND
Put plainly: Uptake in GLUT4-EGFP transfected HeLa cells (fluorescence microscopy). Particulars: 100 μM. Format: cell-based. The procedure: as §2, §1
Confocal fluorescence microscopy was performed on a confocal Leica SP5 or a spinning disk microscope with excitation at 488 nm (ER Tracker, LysoTracker, EGFP & SCOTfluor-89), 561 nm (SCOTfluor-101) and 405 nm (Hoechst 33342). […]

The mark [7] stands for this setting: glut2 morpholino-injected zebrafish embryos.

Bounds are passed on as bounds.

For “Nitrobenzodioxazole [NBD, reference compound]”, in data set [1], the Φ was 0.55, the ε is 15,400 M^−1cm^−1, the λabs. was 486 nm and the λem. was found to be 542 nm.
On to `CCCCCCCCCCCCC/C=C/[C@@H](O)[C@H](CO)NC(=O)CCCCCNc1ccc([N+](=O)[O-])c2c1=NC(C)(C)N=2` [SCOTfluor-101, N-((2S,3R,E)-1,3-dihydroxyoctadec-4-en-2-yl)-6-((2,2-dimethyl-7-nitro-2H-benzo[d]imidazol-4-yl)amino)hexanamide], for which, in data set [2] (15 min), the “co-localization (R) with ER Tracker Green” value amounted to 91% and the “co-localization (R) with LysoTracker Blue” value is 26%. Besides, the “co-localization (R) with LysoTracker Blue” value in data set [2] (after 3 h) is recorded as 75%. In addition, the “increase in emission on incubation with liposomes” value in data set [3] (phosphatidylcholine:cholesterol (7:1) liposomes vs PBS) is “over 15 fold”. The aggregation in water result in data set [3] (water) was “minimal aggregation”. For the same molecule, the emission in data set [1] was over 660 nm. In data set [4], the “cytotoxicity (cell viability)” value is given as “no significant cytotoxicity”.
With `O=[N+]([O-])c1ccc(N[C@H]2C(O)O[C@H](CO)[C@@H](O)[C@@H]2O)c2n[se]nc12` (stereo partly drawn) [SCOTfluor-89, (3R,4R,5S,6R)-6-(hydroxymethyl)-3-((7-nitrobenzo[c][1,2,5]selenadiazol-4-yl)amino)tetrahydro-2H-pyran-2,4,5-triol], the “in vivo fluorescence staining” value is on record as “much weaker fluorescence” in data set [5] (setting [7]) and “bright red fluorescence staining in regions of the developing brain” in data set [5] (wildtype zebrafish embryos). Also, in data set [6], the “transport by GLUT4” value was “functional substrate of GLUT4”. In data set [6] (5 mM D-glucose), the “uptake under competition with excess glucose” value was “blocked”. In addition, in data set [6] (insulin 100 nM, 1 h), the “uptake after pre-treating with insulin” value is “increased”. In addition, in data set [1], the Stokes shift was found to be 115 nm. In data set [1], the emission result was “around 605 nm”. In data set [4], the “cytotoxicity (cell viability)” value is “no significant cytotoxicity”.
For the molecule `CCCNc1ccc([N+](=O)[O-])c2c1=NC1(CCCCC1)N=2` [SCOTfluor-81], in data set [1], the Φ is 0.11, the ε was 28,300 M^−1cm^−1, the λabs. was determined as 546 nm and the λem. came out at 650 nm. For the same molecule, the “cytotoxicity (cell viability)” value in data set [4] is “no significant cytotoxicity”.
Turning to `CCN(CC)c1ccc([N+](=O)[O-])c2n[se]nc12` [SCOTfluor-54], the “in vivo fluorescence staining” value in data set [5] (setting [7]) and in data set [5] (wildtype zebrafish embryos) was “no tissue-specific staining” throughout.
Consider `CCCNc1ccc([N+](=O)[O-])c2n[nH]nc12` [SCOTfluor-79], for which, in data set [1], the Φ was under 0.01, the ε is listed as 37,300 M^−1cm^−1, the λabs. is 420 nm and the λem. came out at 460 nm.
In the case of `CCCNc1ccc([N+](=O)[O-])c2nsnc12` [SCOTfluor-78], in data set [1], the Φ amounted to 0.54, the ε is reported as 14,600 M^−1cm^−1, the λabs. came to 476 nm and the λem. stood at 548 nm.
In the case of `CCCNc1ccc([N+](=O)[O-])c2c1=NC(C)(C)N=2` [SCOTfluor-80], in data set [1], the Φ was 0.09, the ε is recorded as 27,300 M^−1cm^−1, the λabs. came out at 564 nm and the λem. is 650 nm.
As to `CCCNc1ccc([N+](=O)[O-])c2n[se]nc12` [SCOTfluor-76], in data set [1], the Φ is reported as 0.20, the ε is on record as 16,300 M^−1cm^−1, the λabs. came to 510 nm and the λem. was 606 nm. Further, in data set [4], the “cytotoxicity (cell viability)” value is “no significant cytotoxicity”.
